In patent publication US20110245284A1, “Alkoxy- and Alkylthio-Substituted Anilinopyrimidines” (Bayer CropScience AG, priority 2008, published 2011):
Where two headings read alike, the source gives them in different places.

Experiments:
Leptosphaeria nodorum = Leptosphaeria nodorum test (wheat) / protective; assay type: in vivo; settings: Parastagonospora nodorum, active compound concentration 500 ppm, evaluation 7-9 days after inoculation, read-out: efficacy
Experimental: Thereafter, the plants are placed in a greenhouse at 90% relative atmospheric humidity and a temperature of 22° C.

Cochliobolus miyabeanus = assay: Cochliobolus test (rice) / protective; settings: Bipolaris oryzae, in Oryza sativa, 96 h, read-out: efficacy
Experimental: Cochliobolus Test (Rice)/Protective • Solvent: 28.5 parts by weight of acetone • Emulsifier: 1.5 parts by weight of alkylaryl polyglycol ether
1 day after the treatment, the plants are inoculated with an aqueous spore suspension of Cochliobolus miyabeanus. The plants are then placed in a greenhouse at 100% relative atmospheric humidity and 25° C.
Evaluation is carried out 4 days after the inoculation.

Pyricularia oryzae = assay: whole plant or invertebrate; assay type: in vivo; settings: 120 h, read-out: efficacy
[1] = logP by LC-MS on reversed-phase columns (C 18), method [c], neutral range pH 7.8; assay type: physicochemical; settings: pH 7.8
Experimental: (§1) The logP values were determined in accordance with EEC Directive 79/831 Annex V.A8 by HPLC (High Performance Liquid Chromatography) on reversed-phase columns (C 18), using the methods below:
[c] The LC-MS determination in the neutral range is carried out at pH 7.8 using the mobile phases 0.001 molar aqueous ammonium bicarbonate solution and acetonitrile, linear gradient from 10% acetonitrile to 95% acetonitrile.

Venturia inaequalis = assay: Venturia test (apple) / protective; assay type: in vivo; settings: 240 h, active compound concentration 100 ppm, evaluation 10 days after inoculation, read-out: efficacy
Experimental: After the spray coating has dried on, the plants are inoculated with an aqueous conidia suspension of the apple scab pathogen Venturia inaequalis and then remain for 1 day in an incubation cabinet at about 20° C. and 100% relative atmospheric humidity.

Sphaerotheca fuliginea = assay: Sphaerotheca test (cucumber) / protective; assay type: in vivo; settings: Podosphaera fuliginea, 168 h, active compound concentration 500 ppm, evaluation 7 days after inoculation, read-out: efficacy
Experimental: The plants are subsequently placed in a greenhouse at 70% relative atmospheric humidity and a temperature of 23° C.

[2] = logP by LC-MS on reversed-phase columns (C 18), method [b], acidic range pH 2.7; assay type: physicochemical; settings: for chromatographic logP: pH 2.7, log p
Experimental: as §1
[b] The LC-MS determination in the acidic range is carried out at pH 2.7 using the mobile phases 0.1% aqueous formic acid and acetonitrile (contains 0.1% formic acid), linear gradient from 10% acetonitrile to 95% acetonitrile.

Alternaria solani = assay: Alternaria test (tomato) / protective; assay type: in vivo; settings: 72 h, active compound concentration 100 ppm, evaluation 3 days after inoculation, read-out: efficacy
Experimental: The plants are then placed in an incubation cabinet at about 20° C. and 100% relative atmospheric humidity.

Fusarium proliferatum = assay: Production of fumonisin FB1 by Fusarium proliferatum (microtitre plates; FB1 by HPLC-MS/MS, growth by OD620); assay type: cell-based; settings: for IC50: Fusarium proliferatum, 144 h
Rhizoctonia solani = assay: Rhizoctonia test (rice) / protective; assay type: in vivo; settings: 96 h, active compound concentration 250 ppm, evaluation 4 days after inoculation, read-out: efficacy
Pyrenophora teres = Pyrenophora teres test (barley) / protective; assay type: in vivo; settings: 192 h, active compound concentration 500 ppm, evaluation 8 days after inoculation, read-out: efficacy
Experimental: After the spray coating has dried on, the plants are sprayed with a spore suspension of Pyrenophora teres. The plants remain in an incubation cabinet for 48 hours at 20° C. and 100% relative atmospheric humidity.

[3] = logP by HPLC on reversed-phase columns (C 18), method [a], acidic range pH 2.3; assay type: physicochemical; settings: pH 2.3, logP (pH2.3)
Experimental: as §1
[a] The determination is carried out in the acidic range at pH 2.3 using the mobile phases 0.1% aqueous phosphoric acid and acetonitrile, linear gradient from 10% acetonitrile to 95% acetonitrile.

[4] = growth, OD620 at the beginning and after 6 days, read-out: pI50 growth (converted)

| SMILES | pest or weed control at 500 ppm (Leptosphaeria nodorum) [%] | pest or weed control at 250 ppm (Cochliobolus miyabeanus) [%] | pest or weed control at 250 ppm (Pyricularia oryzae) [%] | chromatographic logP [1] | pest or weed control at 100 ppm (Venturia inaequalis) [%] | pest or weed control at 500 ppm (Sphaerotheca fuliginea) [%] | chromatographic logP [2] | pest or weed control at 100 ppm (Alternaria solani) [%] | pI50 Fum (Fusarium proliferatum; fumonisin FB1 production, 6 days at 20° C., HPLC-MS/MS) | pI50 growth (Fusarium proliferatum; growth, OD620 at the beginning and after 6 days) | log p ([2]; pH 2.7) | pest or weed control at 250 ppm (Rhizoctonia solani) [%] | IC50 (Fusarium proliferatum; read-out: pI50 Fum) [µM] | IC50 (Fusarium proliferatum; [4]) [µM] | pest or weed control at 500 ppm (Pyrenophora teres) [%] | chromatographic logP [3] |
| --- | --- | --- | --- | --- | --- | --- | --- | --- | --- | --- | --- | --- | --- | --- | --- | --- |
| COC(C)c1cc(Nc2ncc(Cl)c(NC3CC3)n2)ccc1C (centres unmarked) [Example 92] | ≥ 70 | ≥ 80 | ≥ 80 | 3.7 | ≥ 70 | ≥ 70 | 2.11 | ≥ 70 | – | – | – | – | – | – | – | – |
| CC[S+]([O-])C(C)c1cccc(Nc2ncc(C(F)(F)F)c(NC3CC3)n2)c1 (centres unmarked) [Example 45] | – | – | – | – | – | – | – | – | 5.0 | 4.7 | 2.2[b] | – | – | – | – | – |
| COCc1cccc(Nc2ncc(Cl)c(NC(C)C)n2)c1 [Example 26] | ≥ 70 | ≥ 80 | ≥ 80 | – | ≥ 70 | – | 1.76 | ≥ 70 | – | – | – | ≥ 80 | – | – | – | – |
| COCc1cccc(Nc2ncc(C(F)(F)F)c(NC3CCC3)n2)c1 [Example 24] | ≥ 70 | – | ≥ 80 | – | – | – | 3.3 | – | – | – | – | ≥ 80 | 2 | 7.94 | ≥ 70 | – |
| COC(C)(C)Cc1cccc(Nc2ncc(Cl)c(NC3CC3)n2)c1 [Example 64] | ≥ 70 | – | ≥ 80 | 3.81 | ≥ 70 | – | 2.21 | ≥ 70 | – | – | – | – | 0.631 | 5.01 | ≥ 70 | – |
| COC(C)c1cccc(Nc2ncc(Cl)c(NC(C)C)n2)c1 (centres unmarked) [Example 129] | ≥ 70 | ≥ 80 | ≥ 80 | 3.67 | ≥ 70 | ≥ 70 | 2.02 | ≥ 70 | – | – | – | ≥ 80 | – | – | – | – |
| CC[S+]([O-])C(C)c1cccc(Nc2ncc(Cl)c(NC3CCC3)n2)c1 (centres unmarked) [Example 76] | ≥ 70 | ≥ 80 | ≥ 80 | 2.53 | ≥ 70 | ≥ 70 | 1.68 | ≥ 70 | – | – | – | ≥ 80 | – | – | ≥ 70 | – |
| COCC(C)Oc1ccc(Nc2ncc(Br)c(NC3CC3)n2)cc1 (centres unmarked) [Example 1, 5-Bromo-N^4-cyclopropyl-N^2-{4-[(1-methoxypropan-2-yl)oxy]phenyl}pyrimidine-2,4-diamine] | ≥ 70 | – | – | – | ≥ 70 | – | 1.83 | – | – | – | – | – | 1.26 | 6.31 | – | 1.83 |
| CCCCSc1cccc(Nc2ncc(Cl)c(NC3CCC3)n2)c1 [Example 106] | ≥ 70 | ≥ 80 | ≥ 80 | 5.13 | ≥ 70 | – | 4.28 | ≥ 70 | – | – | – | ≥ 80 | – | – | – | – |
| COC(C)c1cccc(Nc2ncc(Cl)c(NCC(F)(F)F)n2)c1 (centres unmarked) [Example 83] | ≥ 70 | ≥ 80 | ≥ 80 | 3.18 | ≥ 70 | ≥ 70 | 2.82 | ≥ 70 | – | – | – | ≥ 80 | – | – | – | – |
| CCS(=O)(=O)c1cccc(Nc2ncc(C(F)(F)F)c(NC3CC3)n2)c1 [Example 116] | ≥ 70 | ≥ 80 | ≥ 80 | 2.8 | ≥ 70 | ≥ 70 | 2.74 | – | – | – | – | ≥ 80 | – | – | ≥ 70 | – |
| CCS(=O)(=O)C(C)c1cccc(Nc2ncc(Cl)c(NC3CCC3)n2)c1 (centres unmarked) [Example 77] | ≥ 70 | ≥ 80 | ≥ 80 | 2.98 | ≥ 70 | ≥ 70 | 1.9 | ≥ 70 | – | – | – | ≥ 80 | – | – | ≥ 70 | – |
| CCC[S+]([O-])c1cccc(Nc2ncc(Cl)c(NC3CCC3)n2)c1 (centres unmarked) [Example 100] | ≥ 70 | ≥ 80 | ≥ 80 | – | ≥ 70 | – | 2.09 | ≥ 70 | – | – | – | ≥ 80 | – | – | – | – |
| CCSC(C)c1cccc(Nc2ncc(Br)c(NC3CCC3)n2)c1 (centres unmarked) [Example 12] | ≥ 70 | – | – | – | ≥ 70 | – | 3.49 | ≥ 70 | – | – | – | – | 10 | > 50.1 | ≥ 70 | – |
| CC[S+]([O-])c1cccc(Nc2ncc(C(F)(F)F)c(NC3CC3)n2)c1 (centres unmarked) [Example 117] | ≥ 70 | ≥ 80 | ≥ 80 | 2.46 | – | ≥ 70 | 2.2 | – | – | – | – | ≥ 80 | – | – | ≥ 70 | – |
| CCSc1cccc(Nc2ncc(C(F)(F)F)c(NC3CC3)n2)c1 [Example 101] | ≥ 70 | ≥ 80 | ≥ 80 | 4.21 | – | ≥ 70 | 3.95 | – | – | – | – | ≥ 80 | – | – | ≥ 70 | – |
| COC(C)c1cccc(Nc2ncc(Cl)c(NC3CCC3)n2)c1 (centres unmarked) [Example 15] | ≥ 70 | ≥ 80 | ≥ 80 | – | ≥ 70 | ≥ 70 | 2.27 | ≥ 70 | – | – | – | ≥ 80 | – | – | ≥ 70 | – |
| CCCSc1cccc(Nc2ncc(Br)c(NC3CCC3)n2)c1 [Example 57] | ≥ 70 | ≥ 80 | ≥ 80 | – | ≥ 70 | ≥ 70 | 3.96 | ≥ 70 | – | – | – | ≥ 80 | – | – | ≥ 70 | – |
| CCCCS(=O)(=O)c1cccc(Nc2ncc(C(F)(F)F)c(NC3CC3)n2)c1 [Example 121] | ≥ 70 | ≥ 80 | ≥ 80 | 3.46 | ≥ 70 | ≥ 70 | 3.4 | ≥ 70 | – | – | – | ≥ 80 | – | – | – | – |
| CCOCCOc1cccc(Nc2ncc(Cl)c(NC3CC3)n2)c1 [Example 93] | ≥ 70 | ≥ 80 | ≥ 80 | 3.3 | ≥ 70 | ≥ 70 | 2.13 | ≥ 70 | – | – | – | – | – | – | ≥ 70 | – |
